Measurements taken from PMC11596857 (Molecules, 2024).
pKi: −log10 of the molar value. Where two headings read alike, the source gives them in different places.

Key:
[1] = biological target: T1, proline utilization A (SmPutA) (Sinorhizobium meliloti, UniProt F7X6I3); assay: X-ray crystal structure ([…] Å); Ki from GSALDH activity inhibition; assay type: biochemical
T1 construct: gene putA; bifunctional PRODH-GSALDH enzyme, His tag removed
T1 sequence (F7X6I3 1-1233): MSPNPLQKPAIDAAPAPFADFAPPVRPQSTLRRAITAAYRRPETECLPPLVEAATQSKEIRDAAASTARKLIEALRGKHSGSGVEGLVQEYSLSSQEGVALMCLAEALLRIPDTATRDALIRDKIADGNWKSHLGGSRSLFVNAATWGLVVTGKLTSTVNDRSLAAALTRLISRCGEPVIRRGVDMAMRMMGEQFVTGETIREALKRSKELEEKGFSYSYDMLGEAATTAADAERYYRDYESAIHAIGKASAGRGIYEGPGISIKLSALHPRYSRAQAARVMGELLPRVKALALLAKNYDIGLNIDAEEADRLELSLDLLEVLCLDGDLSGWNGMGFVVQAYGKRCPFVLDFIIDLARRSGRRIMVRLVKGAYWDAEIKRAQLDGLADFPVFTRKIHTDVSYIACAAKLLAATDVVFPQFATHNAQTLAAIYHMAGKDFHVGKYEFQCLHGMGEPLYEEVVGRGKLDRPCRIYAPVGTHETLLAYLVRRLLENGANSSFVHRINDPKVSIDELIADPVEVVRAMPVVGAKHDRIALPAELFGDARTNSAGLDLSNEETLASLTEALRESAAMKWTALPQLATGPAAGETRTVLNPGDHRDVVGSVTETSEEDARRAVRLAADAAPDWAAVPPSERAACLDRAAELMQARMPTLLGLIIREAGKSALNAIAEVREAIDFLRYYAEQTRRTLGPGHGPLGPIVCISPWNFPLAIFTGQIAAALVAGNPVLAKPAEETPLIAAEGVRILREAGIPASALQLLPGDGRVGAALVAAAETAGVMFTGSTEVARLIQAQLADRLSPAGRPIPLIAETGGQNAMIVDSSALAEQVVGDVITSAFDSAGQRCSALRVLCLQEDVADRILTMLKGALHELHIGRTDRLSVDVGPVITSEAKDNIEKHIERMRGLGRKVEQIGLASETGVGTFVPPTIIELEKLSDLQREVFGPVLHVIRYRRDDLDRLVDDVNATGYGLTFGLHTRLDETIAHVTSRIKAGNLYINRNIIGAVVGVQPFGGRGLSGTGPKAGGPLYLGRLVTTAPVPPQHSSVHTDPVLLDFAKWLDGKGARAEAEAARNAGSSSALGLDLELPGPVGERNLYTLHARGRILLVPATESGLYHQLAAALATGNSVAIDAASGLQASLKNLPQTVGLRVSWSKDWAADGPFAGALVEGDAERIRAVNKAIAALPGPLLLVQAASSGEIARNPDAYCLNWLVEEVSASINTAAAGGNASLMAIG

[2] = biological target: T1, proline utilization A (SmPutA); assay: as above; assay type: biochemical; remark: listed apart in the source

Row | pKi [2] | SMILES | pKi [1]
1 |  | O=C(O)C1CCCNC1 (racemic) [compound 13, 13] | 2.82
2 | 3.49 | O=C(O)c1cccc2c1OCCO2 [compound 7, 7] | 
